{"source": "paper PMC9321718", "about": "(Pharmaceuticals, 2022)", "key": {"[1]": {"assay": "Dissociation constant of complexes with HPCD by FTIR spectroscopy", "assay_type": "physicochemical", "conditions": "complex with HPCD, aqueous solutions, 22 °C", "description": "Changes in the microenvironment of chemical bonds, functional groups, protonation/deprotonation, or the formation of non-valent interactions between the receptor and the ligand (in this case, the formation of guest–host inclusion complexes of CD with EG and apiol molecules) leads to a change in the intensity or position of characteristic peaks in the IR spectra. […] The above-indicated peaks in the IR spectra are composite which was visually confirmed by the changes in the shape of peaks and even the appearance of shoulders when the APAB was turned on in the CD cavity. To separate the complex peaks into components, increase sensitivity and obtain more detailed information, the differentiation method was used. The shifts of minima/maxima of the second derivative of spectra (Figure 2B) in allyl ν(C=C) and aromatic ν(C–C) regions were the most prominent. […]\nATR-FTIR spectra of samples’ solutions (point 3.3.1) were recorded using a Bruker Tensor 27 spectrometer equipped with a liquid nitrogen cooled MCT (mercury cadmium telluride) detector. […] ATR-FTIR spectra of solid samples placed on KBr glass were recorded using a Bruker Lumos II IR microscope in the region from 700 to 4000 cm^−1 with 1 cm^−1 spectral resolution with scanning in the area on average 1 × 1 microns. […]"}, "[2]": {"assay": "Solubility of X in water and in the presence of MCD/HPCD (UV absorbance)", "conditions": "22 °C, pH 6.2, water", "protocol": "(§5) (3) Solubility of X in water C0 = [Xaq] = A/(ε · l) was determined by UV absorbance after centrifugation of samples (10 min, 10,000× g). l = 1 cm. ε—molar absorbance coefficient (Figure 1C)."}, "[3]": {"test_system": "E. coli", "assay": "Synergy of adjuvant-MCD with Lev-MCD, growth inhibition zones in agar", "assay_type": "cell-based, Escherichia coli", "conditions": "for decrease of MICLev in the presence of adjuvant / D, diameter of bacterial inhibition zone surrounding Lev–MCD with APAB-MCD / ϕLev = (D/DLev)^2 / FICI: E. coli; for D, diameter of bacterial inhibition zone surrounding Lev–MCD with APAB-MCD: Lev-MCD + X-MCD (1:2), ±0.5; for ϕLev = (D/DLev)^2: ±0.1; for FICI: ±15%", "procedure": "(§1) We obtained complex formulations containing adjuvants-MCD and Lev-MCD. These complexes were referred to as enhanced Lev. The synergy effect was studied at a constant concentration of Lev and a variable concentration of an enhancer. […] Based on the D/DLev ratio, the effectiveness of cooperative antibacterial action (ϕ) of the adjuvant and Lev was calculated. The fractional inhibitory concentration (FIC) parameter was introduced: at a fixed Lev concentration, the FIC of adjuvant corresponds to the minimum fractional adjuvant concentration at which the antibacterial effect was still manifest (MICadjuvant in the presence of Lev). The fractional inhibitory concentration index (FICI) characterizes the ratio of the active Lev and adjuvant concentrations to the MIC values of these substances individually: FICI=[Lev]/MIC(Lev)[…][adjuvant]/MIC(adjuvant) (see Section 3).\n(§2) The FICI was interpreted as: synergism (<0.35), additivity (0.35–0.75), indifference (0.75–1.4), or antagonism (>1.4). FICI is designed to determine the type of Lev interaction with adjuvants.\n(§3) The study of the antibacterial effect of Lev and adjuvants was carried out by (a) agar diffusion test and (b) broth micro-dilution method. (a) A measured 500 µL of 100-fold culture dilution was evenly distributed over a solid nutrient medium (LB, pH 7.2) on a Petri dish. After 20 min, agar disks with a diameter of 9 mm were removed from the cups and 50 µL of the test samples were placed in the formed wells at the required concentration in a sterile PBS buffer (see Section 3.3 (2)). After 30 min, Petri dishes were placed in a 37 °C thermostat. […] Minimum inhibitory concentrations (MICs) are determined as the infimum of multiple concentrations of an antimicrobial that inhibits the visible growth of a microorganism after overnight incubation. (b) According to the standard broth micro-dilution method, 200 µL of the overnight culture (5 × 10^6 CFU) was placed into a 96 micro-titer plate wells. Then 50 µL of tested samples was added. The range of tested Lev concentration was 4–200 ng/mL, adjuvants concentration was in the range of 0.008–2 mg/mL. […] The dependence of CFU (determined by A600) on the concentration of Lev, APAB or terpenoid (briefly X) was approximated according to the Boltzmann equation (Origin software): CFU = (control CFU)/(1 + exp(([X] − MIC50)/constant value)). […] In other words, the concentration at which the ordinate value (CFU) is equal to 50 or 10% of the control sample minus the background.\n(§4) The FICI was interpreted as: synergism (<0.35), additivity (0.35–0.75), indifference (0.76–1.4), or antagonism (>1.4). The essence of this expression is to calculate the average change in the effective concentration compared to MIC. Note that the most important parameter corresponds to a decrease in MIC of Lev. However, FICI is designed to determine the type of interaction Lev with adjuvants."}, "[4]": {"assay": "Dissolution of APAB on inclusion into CD, observed in a light microscope", "assay_type": "physicochemical", "conditions": "MCD and HPCD", "procedure": "The dependence of the dissolution degree on the content of CD in the system was determined. […] Since soluble complex forms of EG, apiol and other individual components of essential oils have been obtained, a quantitative study of the adjuvant and synergistic activities of APAB is relevant but previously impossible because of the stratification of substances and the formation of oil fractions. The following are the results of experiments to determine the antibacterial and synergistic effects of adjuvant–CD complexes."}, "[5]": {"test_system": "B. subtilis", "assay": "Synergy of adjuvant-MCD with Lev-MCD, growth inhibition zones in agar", "assay_type": "cell-based, Bacillus subtilis", "conditions": "B. subtilis; for D, diameter of bacterial inhibition zone surrounding Lev–MCD with APAB-MCD: Lev-MCD + X-MCD (1:2), ±0.5; for ϕLev = (D/DLev)^2: ±0.1", "procedure": "as §1, §2, §3, §4"}, "[6]": {"conditions": "pH 6.2", "protocol": "as §5"}}}
{"compound": "C=CCc1cc(OC)c2c(c1OC)OCO2", "note": "[Apiol]", "values": [{"measurement": "Kd", "setting": "[1]", "result": "4 ± 0.3", "unit": "mM"}, {"measurement": "solubility", "setting": "[2]", "result": "130 ± 10", "unit": "µM"}, {"measurement": "decrease of MICLev in the presence of adjuvant", "setting": "[3]", "result": "up to twice"}, {"measurement": "D, diameter of bacterial inhibition zone surrounding Lev–MCD with APAB-MCD", "setting": "[3]; CLev 0.1 μg/mL", "result": 14.5, "unit": "mm"}, {"measurement": "ϕLev = (D/DLev)^2", "setting": "[3]; CLev 0.1 μg/mL", "result": 1.6}, {"measurement": "FICI", "setting": "[3]; CLev 0.1 μg/mL", "result": 0.35}, {"measurement": "D, diameter of bacterial inhibition zone surrounding Lev–MCD with APAB-MCD", "setting": "[3]; CLev 0.15 μg/mL", "result": 14, "unit": "mm"}, {"measurement": "ϕLev = (D/DLev)^2", "setting": "[3]; CLev 0.15 μg/mL", "result": 2.0}, {"measurement": "FICI", "setting": "[3]; CLev 0.15 μg/mL", "result": 0.20}, {"measurement": "amount of CD required for a noticeable conversion to the complex/soluble form", "setting": "[4]", "result": 2, "unit": "fold molar excess"}, {"measurement": "molar excess of CD for almost complete dissolution", "setting": "[4]", "result": "10–15 fold molar excess"}]}
{"compound": "CC1CCC(C(C)C)C(O)C1", "note": "(stereo not drawn) [Menthol]", "values": [{"measurement": "FICadjuvant", "setting": "[5]; CLev 0.5 μg/mL", "result": "0.17 ± 0.01", "unit": "mg/mL"}, {"measurement": "Type of Interaction between Lev and X", "setting": "[5]; CLev 0.5 μg/mL", "result": "Synergism (synergism (<0.35))"}, {"measurement": "D, diameter of bacterial inhibition zone surrounding Lev–MCD with APAB-MCD", "setting": "[5]; CLev 0.5 μg/mL", "result": 18.5, "unit": "mm"}, {"measurement": "ϕLev = (D/DLev)^2", "setting": "[5]; CLev 0.5 μg/mL", "result": 2.4}, {"measurement": "FICI", "setting": "[5]; CLev 0.5 μg/mL, ±15%", "result": 0.11}, {"measurement": "FICadjuvant", "setting": "[5]; CLev 1 μg/mL", "result": "0.17 ± 0.01", "unit": "mg/mL"}, {"measurement": "Type of Interaction between Lev and X", "setting": "[5]; CLev 1 μg/mL", "result": "Synergism (synergism (<0.35))"}, {"measurement": "D, diameter of bacterial inhibition zone surrounding Lev–MCD with APAB-MCD", "setting": "[5]; CLev 1 μg/mL", "result": 18, "unit": "mm"}, {"measurement": "ϕLev = (D/DLev)^2", "setting": "[5]; CLev 1 μg/mL", "result": 1.3}, {"measurement": "FICI", "setting": "[5]; CLev 1 μg/mL, ±15%", "result": 0.23}, {"measurement": "efficiency parameter ϕ", "setting": "[5]; adjuvant-MCD with Lev-MCD", "result": 2.4}, {"measurement": "FICI", "setting": "[5]; with Lev", "result": "0.08–0.11"}, {"measurement": "Cmax in the Presence of 2 mM MCD", "setting": "[6]", "result": "1400 ± 200", "unit": "µM"}, {"measurement": "Cmax in the Presence of 10 mM MCD", "setting": "[6]", "result": "8500 ± 800", "unit": "µM"}, {"measurement": "decrease of MICLev in the presence of adjuvant", "setting": "[3]", "result": "up to twice"}, {"measurement": "D, diameter of bacterial inhibition zone surrounding Lev–MCD with APAB-MCD", "setting": "[3]; CLev 0.1 μg/mL", "result": 13.5, "unit": "mm"}, {"measurement": "ϕLev = (D/DLev)^2", "setting": "[3]; CLev 0.1 μg/mL", "result": 1.7}, {"measurement": "FICI", "setting": "[3]; CLev 0.1 μg/mL", "result": 0.02}, {"measurement": "D, diameter of bacterial inhibition zone surrounding Lev–MCD with APAB-MCD", "setting": "[3]; CLev 0.15 μg/mL", "result": 14, "unit": "mm"}, {"measurement": "ϕLev = (D/DLev)^2", "setting": "[3]; CLev 0.15 μg/mL", "result": 2.0}, {"measurement": "FICI", "setting": "[3]; CLev 0.15 μg/mL", "result": 0.15}, {"measurement": "increase in Lev antibacterial activity / efficacy", "setting": "[3]; growth inhibition diameter measurement in agar, inclusion complexes with MCD", "result": "two–three-fold"}]}
